The assay concerns ATF4 luciferase reporter in HEK293T cells. In words: ATF4-Luc assay (ATF4 luciferase reporter, tunicamycin-treated HEK293T cells). In kind it is cell-based, human. Conditions: HEK293T cells carrying the ATF4 luciferase reporter, 1 μg/mL tunicamycin, 7 hours. For orientation: A reporter such as luciferase makes a cellular process visible.

Molecules are shown by their SMILES.

What is called EC50 is the concentration giving half of the maximal effect. With `Cc1cc(Cl)ncc1OCC(=O)NC12CC(NC(=O)COc3ccc(Cl)c(F)c3)(C1)C2` [Compound 243, 2-(4-chloro-3-fluorophenoxy)-N-(3-{2-[(6-chloro-4-methylpyridin-3-yl)oxy]acetamido}bicyclo[1.1.1]pentan-1-yl)acetamide], the half-maximal effective concentration (EC50) (Homo sapiens, HEK-293T) fell in the range of 250 to 500 nM.

For the molecule `Cc1noc2cc(OCC(=O)NC34CC(NC(=O)COc5ccc(Cl)c(F)c5)(C3)C4)ccc12` [Compound 110, 2-(4-chloro-3-fluorophenoxy)-N-(3-{2-[(3-methyl-1,2-benzoxazol-6-yl)oxy]acetamido}bicyclo[1.1.1]pentan-1-yl)acetamide], the 50% effective concentration (EC50) (Homo sapiens, HEK-293T) was in the range of 500 to 2000 nM.

As for `CC(=O)O[C@H]1CC2(NC(=O)COc3ccc(Cl)c(F)c3)CCC1(NC(=O)COc1ccc(Cl)c(F)c1)CC2` [Compound 445, (2S)-1,4-bis[2-(4-chloro-3-fluorophenoxy)acetamido]bicyclo[2.2.2]octan-2-yl acetate], the 50% effective concentration (EC50) (Homo sapiens, HEK-293T) is less than 10 nM.

For the molecule `CS(=O)(=O)c1cc(OCC(=O)NC23CCC(NC(=O)COc4ccc(F)c(F)c4)(CC2)[C@@H](O)C3)ccc1F` [Compound 818, 2-(3,4-difluorophenoxy)-N-[(2S)-4-{2-[4-fluoro-3-(methanesulfonyl)phenoxy]acetamido}-2-hydroxybicyclo[2.2.2]octan-1-yl]acetamide], the EC50 (Homo sapiens, HEK-293T) fell in the range of 250 to 500 nM.

Consider `O=C(COc1ccc(Cl)c(Cl)c1)NC12CC(NC(=O)COc3ccccn3)(C1)C2` [Compound 401, 2-(3,4-dichlorophenoxy)-N-(3-{2-[(pyridin-2-yl)oxy]acetamido}bicyclo[1.1.1]pentan-1-yl)acetamide], for which the EC50 (Homo sapiens, HEK-293T) is 10 to 50 nM.

On to `O=C(COCCc1ccc(F)cc1)NC12CC(NC(=O)COc3ccc(Cl)c(Cl)c3)(C1)C2` [Compound 149, 2-(3,4-dichlorophenoxy)-N-(3-{2-[2-(4-fluorophenyl)ethoxy]acetamido}-bicyclo[1.1.1]pentan-1-yl)acetamide], for which the concentration giving a half-maximal response (EC50) (Homo sapiens, HEK-293T) lay in the range of 10 to 50 nM.

As for `O=C(COc1ccc(Cl)c(F)c1)NC12CC(NC(=O)Cc3cccc(C(F)(F)F)c3)(C1)C2` [Compound 457, 2-(4-chloro-3-fluorophenoxy)-N-(3-{2-[3-(trifluoromethyl)phenyl]acetamido}bicyclo[1.1.1]pentan-1-yl)acetamide], under “Homo sapiens, HEK-293T”, the EC50 is more than 2000 nM.

As for `CN(CC(=O)NC12CCC(NC(=O)COc3ccc(Cl)c(Cl)c3)(C1)C2)c1ccc(Cl)cc1` [Compound 202, N^2-(4-chlorophenyl)-N-{4-[2-(3,4-dichlorophenoxy)acetamido]-bicyclo[2.1.1]hexan-1-yl}-N^2-methylglycinamide], the half-maximal effective concentration (EC50) (Homo sapiens, HEK-293T) was more than 2000 nM.

For `O=C(COc1ccc(Cl)c(F)c1)NC12CC(N(CCO)C(=O)COc3ccc(C(F)(F)F)nc3)(C1)C2` [Compound 191, N-{3-[2-(4-chloro-3-fluorophenoxy)acetamido]bicyclo[1.1.1]pentan-1-yl}-N-(2-hydroxyethyl)-2-{[6-(trifluoromethyl)pyridin-3-yl]oxy}acetamide], the 50% effective concentration (EC50) (Homo sapiens, HEK-293T) fell in the range of 500 to 2000 nM.

As to `O=C(COc1ccc(Cl)c(F)c1)NC12CC(NC(=O)COc3ccc(F)cc3F)(C1)C2` [Compound 409, 2-(4-chloro-3-fluorophenoxy)-N-{3-[2-(2,4-difluorophenoxy)acetamido]bicyclo[1.1.1]pentan-1-yl}acetamide], the 50% effective concentration (EC50) (Homo sapiens, HEK-293T) is less than 10 nM.

For `O=C(COc1cncc(C(F)(F)F)c1)NC12CC(NC(=O)COc3ccc(Cl)c(F)c3)(C1)C2` [Compound 230, 2-(4-chloro-3-fluorophenoxy)-N-[3-(2-{[5-(trifluoromethyl)pyridin-3-yl]oxy}acetamido)bicyclo[1.1.1]pentan-1-yl]acetamide], the EC50 (Homo sapiens, HEK-293T) lay in the range of 10 to 50 nM.

As for `O=C(/C=C/c1ccc(OC(F)(F)F)cn1)NC12CC(NC(=O)COc3ccc(Cl)c(F)c3)(C1)C2` [Compound 376, (2E)-N-{3-[2-(4-chloro-3-fluorophenoxy)acetamido]bicyclo[1.1.1]pentan-1-yl}-3-[5-(trifluoromethoxy)pyridin-2-yl]prop-2-enamide], the EC50 (Homo sapiens, HEK-293T) fell in the range of 250 to 500 nM.

Take `O=C(COc1ccc(Cl)c(F)c1)NC12CCC(NC(=O)COc3cccc(C(F)(F)F)c3)(CC1)[C@@H](O)C2` [Compound 501, 2-(4-chloro-3-fluorophenoxy)-N-[(3S)-3-hydroxy-4-{2-[3-(trifluoromethyl)phenoxy]acetamido}bicyclo[2.2.2]octan-1-yl]acetamide]: where the note is “Homo sapiens, HEK-293T”, the EC50 is less than 10 nM.

Take `O=C(COc1ccc(Cl)c(F)c1)NC12CCC(N[C@@H](CCOc3ccc(Cl)cc3)C(=O)O)(CC1)C[C@@H]2O` (single isomer, unassigned) [Compound 694]: under “Homo sapiens, HEK-293T”, the EC50 fell in the range of 250 to 500 nM.

With `O=C(COc1ccc(F)c(F)c1)NC12CCC(NC(=O)COc3ccc(C(F)(F)F)nc3)(CC1)C(O)C2` (stereo not shown) [Compound 359, 2-(3,4-difluorophenoxy)-N-[3-hydroxy-4-(2-{[6-(trifluoromethyl)pyridin-3-yl]oxy}acetamido)bicyclo[2.2.2]octan-1-yl]acetamide], under “Homo sapiens, HEK-293T”, the EC50 was in the range of 10 to 50 nM.

In the case of `Cc1cc(OCC(=O)NC23CCC(NC(=O)COc4ccc(Cl)c(F)c4)(CC2)C[C@@H]3O)cc(C)n1` [Compound 395, 2-(4-chloro-3-fluorophenoxy)-N-[(3S)-4-{2-[(2,6-dimethylpyridin-4-yl)oxy]acetamido}-3-hydroxybicyclo[2.2.2]octan-1-yl]acetamide], the half-maximal effective concentration (EC50) (Homo sapiens, HEK-293T) fell in the range of 500 to 2000 nM.

Regarding `O=C(COc1ccc(F)c(F)c1)NC12CCC(NC(=O)COc3ccc(F)c(C(F)(F)F)c3)(CC1)[C@@H](O)C2` [Compound 829, 2-(3,4-difluorophenoxy)-N-[(3S)-4-{2-[4-fluoro-3-(trifluoromethyl)phenoxy]acetamido}-3-hydroxybicyclo[2.2.2]octan-1-yl]acetamide], the EC50 (Homo sapiens, HEK-293T) is less than 10 nM.

For `O=C(COCCc1ccc(F)cc1)NC12CC(NC(=O)COc3ccc(Cl)c(F)c3)(C1)C2` [Compound 134, 2-(4-chloro-3-fluorophenoxy)-N-(3-{2-[2-(4-fluorophenyl)ethoxy]acetamido}-bicyclo[1.1.1]pentan-1-yl)acetamide], the concentration giving a half-maximal response (EC50) (Homo sapiens, HEK-293T) lay within 50 to 250 nM.

`O=C(COc1ccc(Cl)c(F)c1)NC12CC(NS(=O)(=O)Cc3ccc(Cl)cc3)(C1)C2` [Compound 427, 2-(4-chloro-3-fluorophenoxy)-N-(3-{[(4-chlorophenyl)methanesulfonyl]amino}bicyclo[1.1.1]pentan-1-yl)acetamide]: for the setting “Homo sapiens, HEK-293T”, the EC50 is 500 to 2000 nM.

As to `O=C(COc1ccc(Cl)c(F)c1)NC12CCC(NS(=O)(=O)Cc3ccc(C(F)(F)F)cc3)(CC1)[C@@H](O)C2` [Compound 429, 2-(4-chloro-3-fluorophenoxy)-N-[(3S)-3-hydroxy-4-({[4-(trifluoromethyl)phenyl]methanesulfonyl}amino)bicyclo[2.2.2]octan-1-yl]acetamide], where the note is “Homo sapiens, HEK-293T”, the EC50 was in the range of 50 to 250 nM.

As to `O=C(COc1ccc(Cl)c(Cl)c1)NC12CC(NC(=O)OCCc3cccc(Cl)c3)(C1)C2` [Compound 173, 2-(3-chlorophenyl)ethyl {3-[2-(3,4-dichlorophenoxy)acetamido]-bicyclo[1.1.1]pentan-1-yl}carbamate], the EC50 (Homo sapiens, HEK-293T) was in the range of 50 to 250 nM.

On to `O=C(COc1ccc2c(c1)OC(F)(F)O2)NC12CC(NC(=O)COc3cnc(C(F)F)cn3)(C1)C2` [Compound 383, 2-[(2,2-difluoro-2H-1,3-benzodioxol-5-yl)oxy]-N-[3-(2-{[5-(difluoromethyl)pyrazin-2-yl]oxy}acetamido)bicyclo[1.1.1]pentan-1-yl]acetamide], for which the 50% effective concentration (EC50) (Homo sapiens, HEK-293T) is more than 2000 nM.

With `Cc1cc(OCC(=O)NC23CC(NC(=O)COc4ccc(Cl)c(F)c4)(C2)C3)cnc1Cl` [Compound 226, 2-(4-chloro-3-fluorophenoxy)-N-(3-{2-[(6-chloro-5-methylpyridin-3-yl)oxy]acetamido}bicyclo[1.1.1]pentan-1-yl)acetamide], the EC50 (Homo sapiens, HEK-293T) was in the range of 10 to 50 nM.

In the case of `O=C(COc1ccc(Cl)c(F)c1)NC12CC(NC(=O)COc3cc(F)c(F)c(F)c3)(C1)C2` [Compound 416, 2-(4-chloro-3-fluorophenoxy)-N-{3-[2-(3,4,5-trifluorophenoxy)acetamido]bicyclo[1.1.1]pentan-1-yl}acetamide], the EC50 (Homo sapiens, HEK-293T) was less than 10 nM.

With `O=C(COc1ccc(Cl)c(F)c1)NC12CCC(NC(=O)COc3ccc(C(F)(F)F)nc3)(CC1)C(F)C2` (single isomer, unassigned) [Compound 373], the EC50 fell in the range of 50 to 250 nM.

On to `COc1cc(OCC(=O)NC23CCC(NC(=O)COc4ccc(F)c(F)c4)(CC2)[C@@H](O)C3)ccc1F` [Compound 756, 2-(3,4-difluorophenoxy)-N-{(2S)-4-[2-(4-fluoro-3-methoxyphenoxy)acetamido]-2-hydroxybicyclo[2.2.2]octan-1-yl}acetamide], for which, under “Homo sapiens, HEK-293T”, the concentration giving a half-maximal response (EC50) was less than 10 nM.

As for `O=C(COc1ccc(Cl)c(F)c1)NC12CCC(NC(=O)COc3ccc(F)c(Cl)c3)(C1)C2` [Compound 535, 2-(3-chloro-4-fluorophenoxy)-N-{4-[2-(4-chloro-3-fluorophenoxy)acetamido]bicyclo[2.1.1]hexan-1-yl}acetamide], the EC50 (Homo sapiens, HEK-293T) lay in the range of 10 to 50 nM.

Regarding `O=C(COCc1cccc(C(=O)O)c1)NC12CC(NC(=O)COc3ccc(Cl)c(F)c3)(C1)C2` [Compound 212, 3-{[2-({3-[2-(4-chloro-3-fluorophenoxy)acetamido]bicyclo[1.1.1]pentan-1-yl}amino)-2-oxoethoxy]methyl}benzoic Acid], the concentration for a half-maximal effect (EC50) (Homo sapiens, HEK-293T) is more than 2000 nM.

As to `O=C(COc1ccc(Cl)c(F)c1)NC12CC(NC(=O)COc3cc(F)c4cn[nH]c4c3)(C1)C2` [Compound 111, 2-(4-chloro-3-fluorophenoxy)-N-(3-{2-[(4-fluoro-1H-indazol-6-yl)oxy]acetamido}-bicyclo[1.1.1]pentan-1-yl)acetamide], the concentration giving a half-maximal response (EC50) (Homo sapiens, HEK-293T) was less than 10 nM.

As to `O=C(COc1ccc(Cl)c(Cl)c1)NC12CC(NC(=O)OCc3cccc(Cl)c3)(C1)C2` [Compound 172, (3-chlorophenyl)methyl {3-[2-(3,4-dichlorophenoxy)acetamido]-bicyclo[1.1.1]pentan-1-yl}carbamate], for the setting “Homo sapiens, HEK-293T”, the EC50 was in the range of 250 to 500 nM.

For `O=C(CCOc1ccc(Cl)c(F)c1)NC12CCC(NC(=O)COc3ccc(Cl)cc3)(CC1)CC2` [Compound 729, 3-(4-chloro-3-fluorophenoxy)-N-{4-[2-(4-chlorophenoxy)acetamido]bicyclo[2.2.2]octan-1-yl}propanamide], where the note is “Homo sapiens, HEK-293T”, the 50% effective concentration (EC50) was in the range of 50 to 250 nM.

For the origin of these results see patent US20240166652A1, “MODULATORS OF THE INTEGRATED STRESS PATHWAY” (Calico Life Sciences LLC, priority 2017, published 2024).
